Measured values from patent publication US20130005802A1, “TREATMENT OF WNT/FRIZZLED-RELATED DISEASES” (priority 2009, published 2013).

These compounds were tested on LEF/TCF transcription factor reporter (TOPFlash) (assay: TOPFlash reporter assay in HEK293 cells). Conditions: Homo sapiens, read-out: TopFlash assay: IC50.
Format: cell-based
Description: To obtain a Frizzled1-GFP stable cell line (Fzd1GFP-U2OS), U2OS cells were transfected with pCS2ratFrizzled1-GFP and pLKO.1 (10:1 ratio by weight), using the Nucleofection transfection protocol from Amaxa, and stable receptor expressing clones were selected using 1.5 μg/mL puromycin in the culture medium. For generating TOPFlash stable cell lines, HEK293 cells were transfected with p8xTOPFlash, the Renilla luciferase plasmid, and pLKO.1 at a ratio by weight of 10:3:1 and stable clones selected using 1 μg/mL puromycin in the growth medium. pLKO.1 was used to confer puromycin resistance to the stable clones.
For the TOPFlash Luciferase assay the TOPFlash stable cells were seeded in 150 μL growing medium/well in 96-well plates at 100% confluency. Fifty microliters of conditioned medium containing the chemical compounds to be tested or DMSO were added to each well. After an 8 hr treatment, the cells were then washed once with PBS, and lysed with 80 μL MPER solution (Pierce, Rockford, Ill.). Thirty microliters of cell lysate were used for measuring luciferase activity in a 96-well plate reader (FluoStar Optima, BMG Labtech, Chicago, Ill.).
LEF/TCF transcription factor reporter (TOPFlash) assay is a general readout for canonical Wnt signaling pathways. […] A Renila luciferase plasmid was also generated to serve as an internal control.
The average TOPFlash reporter activity of Wnt3A plus DMSO treatment was set as 100%, and the relative reporter activity of Wnt3A plus the indicated concentration of niclosmide was calculated and plotted.
The compounds shown in Table 2 were purchased from Sigma-Aldrich (St. Louis, Mo.) or Chembridge (San Diego, Calif.). The activity of each of the compounds as a negative modulator of the Wnt/Frizzled signaling pathway was examined using the Top-flash assay, as described above.

`Nc1ccc(NC(=O)c2cc(Cl)ccc2O)c(Cl)c1` [Compound 1-2, N-(4-amino-2-chlorophenyl)-5-chloro-2-hydroxybenzamide] and `CS(=O)(=O)c1ccc(NC(=O)c2cc(Cl)ccc2O)c(Cl)c1` [Compound 3-11, 5-chloro-N-[2-chloro-4-(methylsulfonyl)phenyl]-2-hydroxybenzamide] cannot be ordered by IC50: over 12.5 µM for the first, over 12.5 µM for the second.

`O=C(Nc1ccc([N+](=O)[O-])cc1)c1cc(Cl)ccc1O` [Compound 1-4, 5-chloro-2-hydroxy-N-(4-nitrophenyl)benzamide] and `O=C(Nc1ccc([N+](=O)[O-])cc1)c1cc(Br)ccc1O` [Compound 3-5, 5-bromo-2-hydroxy-N-(4-nitrophenyl)benzamide] cannot be ordered by IC50: under 1 µM for the first, under 1 µM for the second.

Going from `COc1ccc(Cl)cc1C(=O)Nc1ccc([N+](=O)[O-])cc1Cl` [Compound 1-6, Benzamide, 5-chloro-N-(2-chloro-4-nitrophenyl)-2-methoxy-] to `COc1cc([N+](=O)[O-])ccc1NC(=O)c1cc(Cl)ccc1O` [Compound 3-9, 5-chloro-2-hydroxy-N-(2-methoxy-4-nitrophenyl)benzamide], the IC50 falls from over 12.5 µM to under 1 µM.

First: O=C(Nc1ccc([N+](=O)[O-])cc1Cl)c1cccc(Cl)c1 [Compound 1-7, Benzamide, 3-chloro-N-(2-chloro-4-nitrophenyl)-]
Second: O=C(Nc1ccc([N+](=O)[O-])cc1Cl)c1ccccc1O [Compound 3-8, N-(2-chloro-4-nitrophenyl)-2-hydroxybenzamide]
The IC50 of the first is higher: over 12.5 µM for the first, 1 to 12.5 µM for the second. The second is the more potent here.

First: O=C(Nc1cc(Cl)cc(Cl)c1O)c1c(O)c(Cl)cc(Cl)c1Cl [Compound 2-1, Oxyclozanide]
Second: O=C(Nc1ccc([N+](=O)[O-])cc1Cl)c1cc(Cl)cc(Cl)c1O [Compound 3-3, 3,5-dichloro-N-(2-chloro-4-nitrophenyl)-2-hydroxybenzamide]
The IC50 of the first is higher: over 12.5 µM for the first, 1 to 12.5 µM for the second. The second is the more potent here.

`O=C(Nc1ccc(Oc2ccc(Cl)cc2)c(Cl)c1)c1cc(I)cc(I)c1O` [Compound 2-2, Rafoxanide] and `Cc1cc(C(C#N)c2ccc(Cl)cc2)c(Cl)cc1NC(=O)c1cc(I)cc(I)c1O` (stereo not shown) [Compound 2-3, Closantel] cannot be ordered by IC50: over 12.5 µM for the first, over 12.5 µM for the second.

First: O=C(Nc1ccc(Br)cc1)c1cc(Br)cc(Br)c1O [Compound 2-4, 3,5-dibromo-N-(4-bromophenyl)-2-hydroxybenzamide]
Second: O=C(Nc1ccc([N+](=O)[O-])cc1Cl)c1cc(Br)ccc1O [Compound 3-4, 5-bromo-N-(2-chloro-4-nitrophenyl)-2-hydroxybenzamide]
The IC50 of the first is higher: over 12.5 µM for the first, under 1 µM for the second. The second is the more potent here.

`O=C(Nc1ccc(NS(=O)(=O)c2ccc(Cl)cc2)cc1Cl)c1cc(Cl)ccc1O` [Compound 3-1, 5-chloro-N-(2-chloro-4-{[(4-chlorophenyl)sulfonyl]amino}phenyl)-2-hydroxybenzamide] and `O=C(Nc1cc(Cl)ccc1O)c1ccc([N+](=O)[O-])cc1` [Compound 3-10, N-(5-chloro-2-hydroxyphenyl)-4-nitrobenzamide] cannot be ordered by IC50: over 12.5 µM for the first, over 12.5 µM for the second.

First: Cc1cc([N+](=O)[O-])c(Cl)cc1NC(=O)c1ccccc1O [Compound 3-2, N-(5-chloro-2-methyl-4-nitrophenyl)-2-hydroxybenzamide]
Second: O=C(Nc1ccc([N+](=O)[O-])cc1Br)c1ccccc1O [Compound 3-7, N-(2-bromo-4-nitrophenyl)-2-hydroxybenzamide]
The IC50 of the first is lower: under 1 µM for the first, 1 to 12.5 µM for the second. The first is the more potent here.

Work on `O=C1c2ccc([N+](=O)[O-])cc2C(=O)N1c1cc(Cl)ccc1O` [Compound 3-6, 2-(5-chloro-2-hydroxyphenyl)-5-nitro-1H-isoindole-1,3(2H)-dione] yielded an IC50 of over 12.5 µM.
